Data taken from patent US20220323532A1, “COMPOSITIONS COMPRISING PLANT-DERIVED EXOSOME-LIKE NANOVESICLES OR EXOSOMES AND METHODS OF USE THEREOF” (priority 2021, published 2022).
Like-named read-outs stand apart in the source and are kept apart here.

Key:
skin of human subjects [1] = test: Primary skin irritation evaluation, single 48 hour patch; assay type: in vivo; conditions: single application, patch 48 hours; 55 subjects; positive control
Description: Patches remain in place for 48 hours. […] Trained skin grading laboratory personnel removed the patch and evaluated the test sites.
Whenever feasible, the same individual does the scoring of all the subjects throughout the study and is blinded to the treatment assignments and any previous scores. • 0 no reaction (negative) • 1 erythema throughout at least ¾ of patch area • 2 erythema and induration throughout at least ¾ of patch area • 3 erythema, induration and vesicles • 4 erythema, induration and bullae • D Site discontinued • Dc Subject discontinued • DcI Subject discontinued per Investigator

skin of human subjects [2] = conditions: repeat insult patch test; positive control
Description: To determine the irritation and sensitization (contact allergy) potential of a test material (high growth serum comprising ashwagandha exosomes/ELNs 1×10^9 or 1×10^10 after repeated application to the skin of human subjects. […]
This procedure was repeated until a series of nine (9) consecutive, 24-hour exposures had been made three (3) times a week for three (3) consecutive weeks. Prior to each reapplication, the test sites evaluated by trained laboratory personnel. […] Test sites were evaluated by trained laboratory personnel 48 and 96 hours after application. In the event of an adverse reaction, the area of erythema and edema were measured. […] Subjects were instructed to report any delayed reactions that might occur after the final reading. […]

SMILES: CCCCCCCCCCCCOS(=O)(=O)[O-].[Na+] [2.0% Sodium Lauryl Sulfate Solution, Sodium Lauryl Sulfate]
- subjects with a Grade 1 reaction (skin of human subjects [1]): 6 subjects
- subjects with a Grade 1 reaction (skin of human subjects [2]): 6 subjects
